Assay results as given in PubChem BioAssay (NCI).
Values joined by “and” are separate entries in the source; they are usually repeats but may differ in a detail not shown here. Equal values may be shown once.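 Each compound was tested at five concentrations against cells in 96-well plates for 48 hours. Here, GI50 denotes the concentration required for 50% inhibition of growth. The concentration for full growth arrest is given as TGI.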

Assays:
Assay in all cases: inhibition of tumour cell growth, NCI panel, 48 h
[1] = test system: OVCAR-3 ovarian
[2] = test system: HL-60(TB) leukemia
[3] = test system: M14 melanoma
[4] = test system: EKVX NSCLC
[5] = test system: DU-145 prostate
[6] = test system: OVCAR-4 ovarian
[7] = test system: CCRF-CEM leukemia
[8] = test system: RPMI-8226 leukemia
[9] = test system: SF-295 CNS
[10] = test system: SK-MEL-28 melanoma

Row | Compound | TGI [1] | TGI [2] | TGI [3] | TGI [4] | TGI [5] | TGI [6] | TGI [7] | TGI [8] | TGI [9] | TGI [10] | GI50 [1] | GI50 [2] | GI50 [3] | GI50 [4] | GI50 [5] | GI50 [6] | GI50 [7] | GI50 [8] | GI50 [9] | GI50 [10]
1 | OCCn1cnc2c(SCc3ccccc3)ncnc21 | > 100 µM | > 100 µM | > 100 µM | > 100 µM | > 100 µM | > 100 µM | > 100 µM | > 100 µM | > 100 µM | > 100 µM | – | – | – | – | – | – | – | – | – | –
2 | CCc1ccc2c(c1)C(=O)c1c-2n(CCCN=[N+]=[N-])c(=O)c2cc(OC)c(OC)cc12 | > 100 µM | > 100 µM | > 100 µM | > 100 µM | > 100 µM | > 100 µM | > 100 µM | > 100 µM | > 100 µM | > 100 µM | > 100000 nM | > 100 µM | > 100000 nM | > 100 µM | > 100 µM | > 100000 nM | > 100 µM | > 100000 nM | 56100 nM | > 100 µM
3 | O=c1c(O)c(-c2ccc(O)c(O)c2)oc2cc(O)cc(O)c12 | 49.2 µM and > 100 µM | 65.3 µM and 47.8 µM | > 100 µM | > 100 µM | > 100 µM | > 100 µM | > 100 µM and 87.7 µM | 86.9 µM | > 100 µM | > 100 µM | 16000 nM | 10.9 µM | 17300 nM | 23.9 µM | 20 µM | 33300 nM | 10.7 µM | 10200 nM | 23100 nM | 17.9 µM
4 | Cc1ccc(-c2csc(NC(=O)N3CCN(c4cc5c(cc4F)c(=O)c(C(=O)O)cn5C4CC4)CC3)n2)cc1 | 18.7 µM | 4.51 µM | > 100 µM | > 100 µM | > 100 µM | > 100 µM | > 100 µM | 1.9 µM | 28.5 µM | > 100 µM | 492 nM | 0.796 µM | 1200 nM | 1.49 µM | 0.428 µM | 2640 nM | 0.451 µM | 378 nM | 762 nM | 0.494 µM
5 | C#CCNCCN1C(=O)c2ccc3c4c(ccc(c24)C1=O)C(=O)N(CCNCC#C)C3=O | 4.22 µM | 25.8 µM | 12.6 µM | 13.6 µM | 11.8 µM | 7.47 µM | 25 µM | 43.2 µM | 15 µM | 27.6 µM | 1520 nM | 8.35 µM | 5520 nM | 5.93 µM | 5.35 µM | 1960 nM | 5.19 µM | 10600 nM | 2150 nM | 10.4 µM
6 | Cc1ccc(C(=O)NC2CCC2)cc1-c1ccc(C(=O)NCC2CC2)cc1 | > 25 µM | > 25 µM | > 25 µM | > 25 µM | > 25 µM | > 25 µM | > 25 µM | > 25 µM | > 25 µM | > 25 µM | > 25000 nM | > 25 µM | > 25000 nM | > 25 µM | > 25 µM | > 25000 nM | > 25 µM | > 25000 nM | > 25000 nM | > 25 µM
7 | Nc1ccccc1C#C/C=C\C#Cc1cccc(O)c1 | 14.7 µM | 21.2 µM | 5.65 µM | 23.4 µM | > 57.7 µM | > 84.8 µM | > 44 µM | > 38.2 µM | 8.29 µM | 31.9 µM | 2730 nM | 4.15 µM | 1300 nM | 2.69 µM | 16.8 µM | 6680 nM | 8.12 µM | 2510 nM | 2190 nM | 8.97 µM
8 | COc1cnc2c(c1)C(=O)c1c-2n(CCCNC2=NCCS2)c(=O)c2cc(Cl)ccc12 | 3.07 µM | 3.39 µM | 1.81 µM | 3.39 µM | 1.83 µM | 2.95 µM | – | 4.89 µM | 1.07 µM | – | 1350 nM | 0.656 µM | 82.9 nM | 1.64 µM | 0.0929 µM | 1420 nM | – | 1070 nM | 77.6 nM | –
9 | CC1=C(C(=O)N(C)c2ccc(Cl)c(C(=O)OC(C)C)c2)SCCO1 | > 100 µM | > 100 µM | > 100 µM | > 100 µM | > 100 µM | > 100 µM | > 100 µM | > 100 µM | > 100 µM | > 100 µM | – | – | – | – | – | – | – | – | – | –
10 | CN(C)c1ccc(C(=NO)c2ccc(N(C)C)cc2)cc1 | 10.1 µM | > 100 µM | – | > 100 µM | > 100 µM | > 100 µM | > 100 µM | 7.94 µM | – | > 100 µM | 2220 nM | 1.62 µM | – | 3.28 µM | 4.52 µM | 89000 nM | 3.27 µM | 2040 nM | – | 5.3 µM
11 | O=C1C(SCCO)=C(SCCO)C(=O)N1c1ccc(-c2ccccc2)cc1 | 2.32 µM | 51.6 µM | 7.64 µM | 23.3 µM | 8.94 µM | 3.1 µM | 6.87 µM | 4.6 µM | 46.1 µM | 6.65 µM | 897 nM | 18.7 µM | 2310 nM | 9.5 µM | 3.59 µM | 932 nM | 2.34 µM | 845 nM | 20700 nM | 2.41 µM
12 | Cc1ccc(-c2nc3nc(-c4ccccc4)nc(N4CCNCC4)c3o2)cc1 | 0.352 µM | 0.463 µM | 3.25 µM | 3.24 µM | 1.73 µM | 1.6 µM | 0.729 µM | 0.571 µM | 1.19 µM | 3.43 µM | 187 nM | 0.215 µM | 1770 nM | 1.74 µM | 0.508 µM | 435 nM | 0.276 µM | 232 nM | 589 nM | 1.89 µM
13 | O=C1NOC(c2ccc(O)cc2)(c2ccc(O)cc2)c2ccccc21 | > 100 µM | > 100 µM | > 100 µM | > 100 µM | > 100 µM | > 100 µM | > 100 µM | > 100 µM | > 100 µM | > 100 µM | > 100000 nM | > 100 µM | > 100000 nM | > 100 µM | > 100 µM | > 100000 nM | > 100 µM | > 100000 nM | > 100000 nM | > 100 µM
